Holding throughout (experiment): DTP human tumour cell line panel, 48 h
For test [1], the system named is 786-0.
The test system of test [2] is A549.
The test system of test [3] is BT-549.
The test system of test [4] is COLO 205.
In test [5] the test system is EKVX.
Test [6] has as its system HCT-15.
Test [7] deals with MCF7.
The subject of test [8] is MDA-MB-231.
The subject of test [9] is MDA-N.
In test [10] the test system is NCI-H460.
Test [11] deals with NCI-H522.
For test [12], the system named is NCI/ADR-RES.
For test [13], the system named is PC-3.
The subject of test [14] is SF-539.
The test system of test [15] is SK-MEL-28.
For test [16], the system named is SR.
Test [17] relates to T47D.
Test [18] concerns UO-31.
Test [19] relates to CCRF-CEM.

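48-hour exposure; five concentrations; linearly interpolated endpoints. GI50 marks 50% less growth.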 The source made the active and inactive calls. Cut-off read from the data, not from the text of the source: active = GI50 up to about 1.1 µM and inactive = higher. Numbered stars: 1 amine (or outer) side, 2 acyl side, 3 side chain; on linkers, the order of the positions; unused ones are H or OH. Bridge positions count the residues as written; N and C are the ends. Square brackets hold non-standard residues; d marks the D form. Peptide text beside a SMILES is read from it. X58 = COc1c(N[*:1])cccc1C(=O)O[C@H](C(=O)[C@H](C)C(=O)[*:2])C(C)C; X57 = CC(C)C[C@H](C(=O)[*:2])C(C)C(=O)C1CCCN1[*:1]; NMeY = CN[C@@H](Cc1ccc(O)cc1)C(=O)O; Lac = C[C@H](O)C(=O)O

In general, GI50 refers to the concentration at which growth is held to half of that of the control.

Take `O=C(O)CN1C(=O)CN=C(c2ccccn2)c2cc(Cl)ccc21`: the GI50 in test [1] was > 100 µM (inactive); in test [2], > 100 µM (inactive); in test [3], > 100 µM (inactive); in [4] it was > 100 µM (inactive); in test [5], > 100 µM (inactive); in test [6] it was > 100 µM. For the same molecule, the GI50 in [7], in [8], in test [9], in [10], in test [11] and in test [12] was > 100 µM (inactive) each time. Moreover, the GI50 in test [13] was > 100 µM (inactive); in [14], > 100 µM (inactive); in [15] it was > 100 µM (inactive); in test [16] it was 0.547 µM (active); in [17] it was > 100 µM (inactive); in test [18], > 100 µM (inactive).
For the molecule `CC(C)(C)OC/C=C1\C(=O)O[C@H]2C[C@@H](O[Si](C)(C)C(C)(C)C)C[C@@H]12`, the GI50 in [1] was > 100 µM (inactive); in test [2], 69.2 µM (inactive); in test [3], > 100 µM (inactive); in [19], 33.9 µM (inactive); in test [4] it was > 100 µM (inactive); in test [5] it was > 100 µM (inactive). In addition, the GI50 in [6] was > 100 µM; in test [7], 35.4 µM (inactive); in test [8], > 100 µM (inactive); in test [9], 90.4 µM (inactive); in test [10], > 100 µM (inactive); in test [11], 33.5 µM (inactive). The GI50 in test [12] was 88.1 µM (inactive); in test [13] it was 66.5 µM (inactive); in test [15], > 100 µM (inactive); in test [16], 37.3 µM (inactive); in test [17], 27.9 µM (inactive); in [18], 53.8 µM (inactive).
Take `O=C(CCCN1CCC2(CC1)CC(=O)N(N1CCOCC1)C2=O)c1ccccc1`: the GI50 is > 100 µM (inactive) in test [1]; > 100 µM (inactive) in [2]; 14.6 µM (inactive) in [3]; > 100 µM (inactive) in [19]; > 100 µM (inactive) in test [4]; > 100 µM (inactive) in test [5]. The concentration for 50% growth inhibition (GI50) in test [6] is > 100 µM; in test [7], > 100 µM (inactive); in test [8], > 100 µM (inactive); in [9], > 100 µM (inactive); in test [11], > 100 µM (inactive); in test [12], > 100 µM (inactive). The GI50 in test [13], in [14], in [15], in [16], in test [17] and in test [18] was > 100 µM (inactive) each time.
Consider `COc1ccc(Nc2ccc3ccccc3c2-c2c(O)ccc3ccccc23)cc1`, for which the GI50 in [1] is 17.1 µM (inactive); in [3], 24.4 µM (inactive); in test [19], 18.3 µM (inactive); in [4], 24 µM (inactive); in [5] it was 14.9 µM (inactive); in test [6], 17.6 µM. Also, the GI50 was 11.8 µM (inactive) in test [7]; 24.7 µM (inactive) in [8]; 12.6 µM (inactive) in test [9]; 16.4 µM (inactive) in test [10]; 18.2 µM (inactive) in test [11]; 15.4 µM (inactive) in test [12]. Further, the GI50 in test [13] is 15.8 µM (inactive); in [14], 25.7 µM (inactive); in [15] it was 13.1 µM (inactive); in test [16], 4.93 µM (inactive); in [17] it was 15.6 µM (inactive); in test [18], 13.6 µM (inactive).
On to `O=[N+]([O-])c1ccc(N2N=C(c3ccc4ccccc4c3O)CC2c2ccc(Cl)cc2)c([N+](=O)[O-])c1` (stereo not drawn), for which the GI50 in test [1] is 44 µM (inactive); in test [2] it was 30.4 µM (inactive); in [3] it was > 100 µM (inactive); in [19], 14.2 µM (inactive); in [4], 29.6 µM (inactive); in [6], 30.3 µM. Further, the GI50 is 20.3 µM (inactive) in test [7]; 20.5 µM (inactive) in [8]; 16.7 µM (inactive) in test [9]; 25.4 µM (inactive) in [10]; 22.1 µM (inactive) in test [11]; 30.6 µM (inactive) in test [12]. For the same molecule, the GI50 was 23.8 µM (inactive) in test [13]; 32.3 µM (inactive) in [14]; 41.8 µM (inactive) in test [15]; 18.2 µM (inactive) in test [16]; 51.4 µM (inactive) in test [17]; > 100 µM (inactive) in test [18].
For `NC(=O)c1nnc2cc(F)c(F)cc2c1N`, the GI50 is 32.4 µM (inactive) in test [1]; 90.2 µM (inactive) in test [2]; 15.7 µM (inactive) in test [3]; > 100 µM (inactive) in [19]; > 100 µM (inactive) in test [4]; 44.7 µM (inactive) in [5]. Further, the GI50 was > 100 µM in test [6]; 37.9 µM (inactive) in test [7]; 44.1 µM (inactive) in [8]; > 100 µM (inactive) in test [9]; 58.3 µM (inactive) in [10]; 18.8 µM (inactive) in test [11]. Also, the GI50 was 27.6 µM (inactive) in test [12]; 95.1 µM (inactive) in test [13]; 36.4 µM (inactive) in test [14]; > 100 µM (inactive) in [16]; 40.7 µM (inactive) in test [17]; 22.1 µM (inactive) in test [18].
With `Cc1ccc(S(=O)(=O)N2CCN3C(=O)c4ccccc4C32c2ccc(F)cc2)cc1` (stereo not drawn), the GI50 is > 100 µM (inactive) in [1]; 51.4 µM (inactive) in test [2]; > 100 µM (inactive) in test [3]; 35.1 µM (inactive) in [19]; 34.9 µM (inactive) in test [4]; 67.8 µM (inactive) in test [5]. The GI50 in [6] is 80.9 µM; in [7], 43.4 µM (inactive); in [8] it was > 100 µM (inactive); in [9], 27.5 µM (inactive); in [10], 67.6 µM (inactive); in [11], 55.8 µM (inactive). Further, the GI50 in test [12] was 52 µM (inactive); in test [13] it was 32 µM (inactive); in [15], 71 µM (inactive); in test [16], 16.9 µM (inactive); in test [17], 56.6 µM (inactive); in test [18], 44.5 µM (inactive).
On to `Cc1ccc(/C=C2\N=C(N3CCCCC3)NC2=O)cc1`, for which the GI50 in test [1], in test [2], in test [3], in test [19], in test [4] and in [5] was > 100 µM (inactive) throughout. The concentration for 50% growth inhibition (GI50) is > 100 µM in [6]; > 100 µM (inactive) in [7]; > 100 µM (inactive) in test [8]; > 100 µM (inactive) in [9]; 74.5 µM (inactive) in [11]; 70.8 µM (inactive) in test [12]. In addition, the GI50 in [13] was > 100 µM (inactive); in test [14], > 100 µM (inactive); in [15] it was > 100 µM (inactive); in [16], > 100 µM (inactive); in test [17], 58.1 µM (inactive); in test [18], > 100 µM (inactive).
In the case of `CCCCCCCCCCCCCCCCOP(=O)(O)OP(=O)(O)OCC1OC(n2cnc3c(N)ncnc32)C(O)C1O` (stereo not drawn), the GI50 in [1] was 80.5 µM (inactive); in [2] it was > 100 µM (inactive); in test [3], 18.7 µM (inactive); in [19], 30.5 µM (inactive); in test [4], > 100 µM (inactive); in [5], > 100 µM (inactive). Further, the GI50 was > 100 µM in test [6]; 56 µM (inactive) in test [7]; > 100 µM (inactive) in test [8]; 75.9 µM (inactive) in test [9]; 36.1 µM (inactive) in test [10]; 19.9 µM (inactive) in [11]. Besides, the GI50 is 78.9 µM (inactive) in [12]; 38.2 µM (inactive) in test [13]; 24.5 µM (inactive) in test [15]; 31.8 µM (inactive) in test [16]; > 100 µM (inactive) in test [17]; 60.5 µM (inactive) in test [18].
For `Oc1ccc2c3c1OC1c4[nH]ncc4C[C@H]4[C@@H](C2)N(CC2CC2)CC[C@]314` (stereo partly drawn), the GI50 in test [1], in [2], in test [3], in test [19], in [4] and in [5] was > 100 µM (inactive) in each case. In addition, the concentration for 50% growth inhibition (GI50) in test [6] is > 100 µM; in [7], > 100 µM (inactive); in test [8], > 100 µM (inactive); in test [9] it was > 100 µM (inactive); in test [10], > 100 µM (inactive); in test [11] it was > 100 µM (inactive). Moreover, the GI50 in [12], in [13], in test [15], in test [16], in test [17] and in test [18] was > 100 µM (inactive) each time.
Regarding `COc1ccc(C[C@H]2C(=O)O[C@H](C)[C@H](NC(=O)[C@@H](CC(C)C)C(C)C(=O)C3CCCN3C(=O)[C@H](C)O)C(=O)Nc3cccc(c3OC)C(=O)O[C@@H](C(C)C)C(=O)[C@H](C)C(=O)N[C@@H](CC(C)C)C(=O)N3CCC[C@H]3C(=O)N2C)cc1` (stereo partly drawn) (H-[Lac][X57]T[X58]LP[NMeY](Me); ester 3-C), the GI50 in [1] is > 12.5 µM (inactive); in [2], 6.75 µM (inactive); in test [3], > 12.5 µM (inactive); in [4], 9.29 µM (inactive); in test [5], > 12.5 µM (inactive); in test [6], > 12.5 µM. In addition, the GI50 is > 12.5 µM (inactive) in [7]; > 12.5 µM (inactive) in test [8]; 10.1 µM (inactive) in [9]; 9.02 µM (inactive) in test [10]; 9.82 µM (inactive) in [11]; > 12.5 µM (inactive) in test [12]. The GI50 was 3.85 µM (inactive) in test [13]; > 12.5 µM (inactive) in test [14]; > 12.5 µM (inactive) in test [15]; 5.09 µM (inactive) in test [16]; > 12.5 µM (inactive) in test [17]; > 12.5 µM (inactive) in test [18].
